Assays:
[1] = test system: Mouse monocyte/macrophage cell line, RAW 264.7; assay: Cholesterol efflux assay (3H-cholesterol, macrophage cell line); type: cell-based; settings: RAW 264.7, 4 hrs incubation, 0.1% human serum albumin, ABCA1-mediated efflux
[2] = test system: db/db mice; assay: Antidiabetic effect (acute blood glucose) in db/db mice; type: in vivo, male db/db (C57B1/KS db/db) mice
Description: The mice, 48 male db/db (C57B1/KS db/db), were purchased from Taconic, arriving at Novo Nordisk A/S Animal Unit at 6 weeks of age. The mice were housed according to standard rules in the animal unit and given free access to standard chow and tap water. The animals were kept at a room temperature of 22-24° C. and housed in groups of 5 mice, with free access to food and water, according to Animal Unit's SOP (Housing of experimental animals at Novo Nordisk A/S).
Test compound was administered as a single dose s.c.
Blood glucose was measured in a 5 μl full blood sample taken from the tip of the tail by puncturing the capillary bed with a lancet, using a 5 μl heparinised capillary tube to sample the blood. The capillary tube was then shaken into 2500 μl glucose/lactate System Solution and measured in a Biosen S_Line, autoanalyser (EKF Diagnostics GmbH, Magdeburg, Germany) according to the manufacturer's instructions. The samples were kept at room temperature until analysis. If analysis was postponed, samples were kept at 4° C. for a maximum of 24 h. The blood samples were taken at the following time points: 0, 30, 60, 120, 180 and 240 minutes and again at 24 h. After the 24 h sample, the blood was sampled from cheek or eye blood for drug exposure measurement in EDTA coated tubes. 50 μl plasma was pipetted from each animal for analysis in an in house immunoassay developed for GLP-1 analogues.

[3] = pH solubility assay; type: physicochemical; design: unit not given here; settings: two days at 25° C.
Description: One approach is to make a pH gradient from a buffer mix consisting of two buffers (e.g. citrate 100 mM/phosphate 200 mM), spike with a concentrated sample stock, and then leave the samples for 2 days at ambient temperature. […] Samples were incubated for two days at 25° C., centrifuged at 4700 g, and the concentration measured in the supernatant on a Nanodrop UV spectrophotometer (Thermo Fischer Scientific, Waltham, Mass.) using a theoretical extinction coefficient of 6,990 cm^−1M^−1.

[4] = Mechanical stress experiment, Thioflavin T fibrillation assay; type: physicochemical; settings: 45 hour mechanical stress, 37° C., samples A-D
Description: In order to determine the physical stability of peptides in solution an accelerated mechanical stress assay was performed. Samples were prepared just before starting the assay. Samples may be prepared in the pH range 3-9 and with peptide concentrations in the range 0-20 mM. Samples may contain buffers such as phosphate, acetate, Tris. Samples may contain antimicrobial preservatives such as phenol or m-cresol.
The pH of the sample was adjusted to the desired value using NaOH and HCl. Thioflavin T was added to the samples from a stock solution in H2O to a final concentration of 5 μM.
Aliquots of each sample were transferred to a 96 well microtiter plate (Packard OptiPlate™-96, white polystyrene) with 200 μL in each well. For each sample data may be recorded for one well or for two or more replicas (two or more wells). […]
Incubation at a selected temperature, mechanical stress and measurement of Thioflavin T fluorescence was performed using a Fluoroskan Ascent FL fluorescence platereader (Thermo Labsystems). […] Fluorescence measurement was performed using excitation through a 444 nm filter and measurement of emission through a 485 nm filter. The fluorescence was measured every 20 minutes during the experiment.
The fluorescence from Thioflavin T was plotted against duration of mechanical stress. A substantial increase in fluorescence from Thioflavin T indicates amyloid fibril formation. […]

[5] = Physical stability assay, dynamic light scattering; type: physicochemical
From the text: Physical stability can be assessed by dynamic and static light scattering. In dynamic light scattering, microsecond fluctuations in scattered laser light incident on a aqueous sample is detected and transformed into diffusion coefficients (Df) of the individual species via the so-called autocorrelation function. For convenience, the diffusion coefficients are typically reported in hydrodynamic radii (Rh) assuming the sample to consist of spherical species. Furthermore, from the radii, an empirical estimate of the molecular weight is obtained. Dynamic light scattering is extremely sensitive and can resolve very small amounts of aggregated species that are undesirable in pharmaceutical formulations. The average, static intensity recorded by the detector also serves as an overall measure of the physical stability of the sample as development of larger species increase the scattered intensity drastically. In order to measure the physical stability of peptides, DLS was applied to aqueous solutions of peptides. Measurements were performed on a Wyatt (Santa Barbara, Calif.) DynaPro DLS plate reader at 25° C., and samples were kept at 37° C. between measurements. Samples were measured for up to two weeks. Measurements were performed in […] triplicate in Corning 3540 384-well microtiter plates (Corning, N.Y.) sealed with transparent plastic foil (Thermo Fischer Scientific, Waltham, Mass.) with twenty 10-second acquisitions per measurement. Autocorrelation curves were fitted with a regularization fit in Dynamics 7.1.7.16 and the resulting diffusion coefficients were transformed into hydrodynamic radii and molecular mass assuming a spherical shape (Table 2). Normalized intensities are reported as is.
Judging from the autocorrelation functions and the normalized static intensity, only minute amounts of aggregate were present at any time independent of sample concentration.

Plasma concentration 24 hours after dosing ([2]; single s.c. dose, FIG. 1B): still very high
Conc. supernatant ([3]; pH meas. 4.15, citrate 100 mM/phosphate 200 mM): 0.009
Conc. supernatant ([3]; pH meas. 4.50, citrate 100 mM/phosphate 200 mM): 0.002
Conc. supernatant ([3]; pH meas. 4.95, citrate 100 mM/phosphate 200 mM): 0.005
Conc. supernatant ([3]; pH meas. 5.29, citrate 100 mM/phosphate 200 mM): 0.021
Conc. supernatant ([3]; pH meas. 5.75, citrate 100 mM/phosphate 200 mM): 0.270
Conc. supernatant ([3]; pH meas. 6.10, citrate 100 mM/phosphate 200 mM): 0.228
Conc. supernatant ([3]; pH meas. 6.42, citrate 100 mM/phosphate 200 mM): 0.234
Conc. supernatant ([3]; pH meas. 6.76, citrate 100 mM/phosphate 200 mM): 0.249
Conc. supernatant ([3]; pH meas. 7.21, citrate 100 mM/phosphate 200 mM): 0.233
Conc. supernatant ([3]; pH meas. 7.65, citrate 100 mM/phosphate 200 mM): 0.244
Conc. supernatant ([3]; pH meas. 8.29, citrate 100 mM/phosphate 200 mM): 0.254
Conc. supernatant ([3]; pH meas. 8.65, phosphate 200 mM only): 0.247
fibril formation (Thioflavin T fluorescence) [4]: did not show signs of fibril formation
Inorm avg. ([5]; 0.9 mg/mL, 37° C., t 0 days): 1.15E+06 kcts
Rh avg. ([5]; 0.9 mg/mL, 37° C., t 0 days): 2.32 nm
Inorm avg. ([5]; 0.9 mg/mL, 37° C., t 1 days): 1.48E+06 kcts
Rh avg. ([5]; 0.9 mg/mL, 37° C., t 1 days): 2.31 nm
Inorm avg. ([5]; 0.9 mg/mL, 37° C., t 4 days): 3.76E+06 kcts
Rh avg. ([5]; 0.9 mg/mL, 37° C., t 4 days): 1.94 nm
Inorm avg. ([5]; 0.9 mg/mL, 37° C., t 8 days): 1.27E+06 kcts
Rh avg. ([5]; 0.9 mg/mL, 37° C., t 8 days): 2.26 nm
Inorm avg. ([5]; 0.9 mg/mL, 37° C., t 13 days): 2.25E+06 kcts
Rh avg. ([5]; 0.9 mg/mL, 37° C., t 13 days): 2.44 nm
oligomer size (molecular weight consistent with number of monomers) ([5]; 20 mM phosphate pH 7.5 buffer, 0.9 mg/mL or 45.5 mg/mL): approximately 4 monomers
Inorm avg. ([5]; 45.5 mg/mL, 37° C., t 0 days): 8.33E+06 kcts
Rh avg. ([5]; 45.5 mg/mL, 37° C., t 0 days): 2.13 nm
Inorm avg. ([5]; 45.5 mg/mL, 37° C., t 1 days): 9.29E+06 kcts
Rh avg. ([5]; 45.5 mg/mL, 37° C., t 1 days): 2.27 nm
Inorm avg. ([5]; 45.5 mg/mL, 37° C., t 4 days): 1.04E+07 kcts
Rh avg. ([5]; 45.5 mg/mL, 37° C., t 4 days): 2.27 nm
Inorm avg. ([5]; 45.5 mg/mL, 37° C., t 6 days): 6.55E+06 kcts
Rh avg. ([5]; 45.5 mg/mL, 37° C., t 6 days): 2.35 nm
Inorm avg. ([5]; 45.5 mg/mL, 37° C., t 14 days): 7.18E+06 kcts
Rh avg. ([5]; 45.5 mg/mL, 37° C., t 14 days): 2.28 nm
Structure (SMILES): CC[C@H](C)[C@H](NC(=O)[C@H](Cc1ccccc1)NC(=O)[C@H](CCC(=O)O)NC(=O)[C@H](CCCCN)NC(=O)[C@@H](NC(=O)[C@H](C)NC(=O)[C@H](CCC(=O)O)NC(=O)CNC(=O)[C@H](CCC(=O)O)NC(=O)[C@H](CC(C)C)NC(=O)[C@H](Cc1ccc(O)cc1)NC(=O)[C@H](CO)NC(=O)[C@H](CO)NC(=O)[C@@H](NC(=O)[C@H](CC(=O)O)NC(=O)[C@H](CO)NC(=O)[C@@H](NC(=O)[C@H](Cc1ccccc1)NC(=O)[C@@H](NC(=O)CNC(=O)[C@H](CCC(=O)O)NC(=O)C(C)(C)NC(=O)[C@@H](N)Cc1c[nH]cn1)[C@@H](C)O)[C@@H](C)O)C(C)C)C(C)C)C(=O)N[C@@H](C)C(=O)N[C@@H](Cc1c[nH]c2ccccc12)C(=O)N[C@@H](CC(C)C)C(=O)N[C@H](C(=O)N[C@@H](CCC(=O)O)C(=O)N[C@@H](CCCCN)C(=O)NC(C)(C)C(=O)N[C@@H](CCCCN)C(=O)N[C@@H](CCC(=O)O)C(=O)N[C@@H](Cc1ccccc1)C(=O)N[C@@H](CC(C)C)C(N)=O)C(C)C [Compound 1, [Aib8,Glu23,Val25,Glu34,Lys35,Aib36,Lys37]-GLP-1-(7-37)-peptidyl-Glu-Phe-Leu amide]
4 h Cholesterol Efflux Emax [1]: 100%
duration of action ([2]; single s.c. dose): at least 24 h
acute effect on blood glucose ([2]; single s.c. dose 10, 30, 100 and 300 nmol/kg): lowered blood glucose in a dose-dependent manner
oligomer stability by DLS ([5]; 20 mM phosphate pH 7.5 buffer, 0.9 mg/mL or 45.5 mg/mL, 37° C., up to two weeks): remained stable throughout the sample period
